Laboratory results published in patent US9085527B2, “Fatty acid acylated salicylates and their uses” (Catabasis Pharmaceuticals, Inc., priority 2008, dated 2015).

Each compound was assayed on NFκB (assay: NFκB-driven luciferase reporter in RAW 264.7 cells challenged with LPS). Conditions: Mus musculus, RAW264.7, 200 ng/mL LPS for 3 hours, read-out: NFκB Inhibitory Activity, IC50 μM.
Type: cell-based, mouse
Experimental: RAW 264.7 cells transfected with an NFκB-driven luciferase reporter are plated in 96 well plates. Cells are treated with Vehicle (0.1% ethanol) or test compounds for 2 hours. As a positive control for inhibition of NFκB signaling, 6 wells are treated with 10 μM dexamethasone. Cells are then challenged with 200 ng/mL LPS for 3 hours in the presence of test compounds. A subset of wells treated with vehicle should remain unstimulated with LPS to determine the floor signal of the assay. NFκB driven luciferase activity is developed by addition of BriteLite luciferase kit (Perkin-Elmer) and measured using a Victor V plate reader. NFκB activity (luciferase activity) for each treatment was normalized to Vehicle wells treated with LPS (% NFκB Response). AlamarBlue was used to monitor cell viability to ensure that inhibition of luciferase signal was not a result of compound cytotoxicity.
RAW 264.7 cells stably expressing a 3×NF-κB response element-driven luciferase reporter were seeded into 96 well plates. After 18 hours, cells were pre-treated with compounds of the invention for 2 hours, and then stimulated with LPS (lipopolysaccharide, 200 ng/mL) or vehicle control for 3 h in the presence of the compounds of the invention. A set of six vehicle was left unstimulated with LPS in order to measure the assay floor. AlamarBlue viability dye (Invitrogen) was added to cells simultaneously with the delivery of LPS (final AlamarBlue concentration of 10%). After the 3 h incubation period with LPS, cell viability was measured by reading fluorescence (excitation 550 nm, emission 595 nm) with a Perkin Elmer Victor V plate reader. Then cell media was aspirated from each well. Luciferase signal was then developed by addition of the Britelite Plus reagent (Perkin Elmer). Luciferase activity was measured with the Perkin Elmer Victor V plate reader. NF-κB activity was expressed as a percent of the vehicle control wells (stimulated with LPS). Compounds were tested at 6 dose point titrations in triplicate to determine IC50 values.

Nc1ccc(O)c(C(=O)O)c1 [Compound 5-ASA, 5-aminosalicylic acid, reference compound] and CCCCC/C=C\C/C=C\C/C=C\C/C=C\CCCC(=O)Nc1ccc(O)c(C(=O)O)c1 [Compound 18, 2-hydroxy-5-(5Z,8Z,11Z,14Z)-icosa-5,8,11,14-tetraenamidobenzoic acid] cannot be ordered by IC50: > 200 µM for the first, > 200 µM for the second.

CC/C=C\C/C=C\C/C=C\C/C=C\C/C=C\C/C=C\CCC(=O)Nc1cccc(C(=O)O)c1 [Compound 17, 3-(4Z,7Z,10Z,13Z,16Z,19Z)-docosa-4,7,10,13,16,19-hexaenamidobenzoic acid] and CC/C=C\C/C=C\C/C=C\C/C=C\C/C=C\C/C=C\CCC(=O)Nc1ccc(O)c(C(=O)OC)c1 [IIIb-1, methyl 5-docosa-4,7,10,13,16,19-hexaenamido-2-hydroxybenzoate] cannot be ordered by IC50: < 200 µM for the first, < 200 µM for the second.

CC/C=C\C/C=C\C/C=C\C/C=C\C/C=C\C/C=C\CCC(=O)NC(CC(C)C)C(=O)Oc1ccccc1C(=O)OCC (centres unmarked) [Compound I-1, ethyl 2-(2-(4Z,7Z,10Z,13Z,16Z,19Z)-docosa-4,7,10,13,16,19-hexaenamido-4-methylpentanoyloxy)benzoate] and CC/C=C\C/C=C\C/C=C\C/C=C\C/C=C\C/C=C\CCC(=O)NC(Cc1ccccc1)C(=O)Oc1ccccc1C(=O)OCC (centres unmarked) [Ii-3, ethyl 2-(2-(4Z,7Z,10Z,13Z,16Z,19Z)-docosa-4,7,10,13,16,19-hexaenamido-3-phenylpropanoyloxy)benzoate] cannot be ordered by IC50: < 200 µM for the first, < 200 µM for the second.

CC/C=C\C/C=C\C/C=C\C/C=C\C/C=C\C/C=C\CCC(=O)NCCSSCCNC(=O)c1ccccc1O [Compound I-2, N-(2-(2-(2-(4Z,7Z,10Z,13Z,16Z,19Z)-docosa-4,7,10,13,16,19-hexaenamidoethyl)disulfanyl)ethyl)-2-hydroxybenzamide] and CC/C=C\C/C=C\C/C=C\C/C=C\C/C=C\C/C=C\CCC(=O)NCCNC(=O)c1ccccc1O [Ih-1, N-(2-(4Z,7Z,10Z,13Z,16Z,19Z)-docosa-4,7,10,13,16,19-hexaenamidoethyl)-2-hydroxybenzamide] cannot be ordered by IC50: < 200 µM for the first, < 200 µM for the second.

CC/C=C\C/C=C\C/C=C\C/C=C\C/C=C\C/C=C\CCC(=O)NCCOCCNC(=O)c1ccccc1O [Compound I-3, N-(2-(2-(4Z,7Z,10Z,13Z,16Z,19Z)-docosa-4,7,10,13,16,19-hexaenamidoethoxy)ethyl)-2-hydroxybenzamide] and CC/C=C\C/C=C\C/C=C\C/C=C\C/C=C\C/C=C\CCC(=O)NCCN(C)CCNC(=O)c1ccccc1O [Compound I-7, N-(2-((2-(4Z,7Z,10Z,13Z,16Z,19Z)-docosa-4,7,10,13,16,19-hexaenamidoethyl)(methyl)amino)ethyl)-2-hydroxybenzamide] cannot be ordered by IC50: < 200 µM for the first, < 200 µM for the second.

CC/C=C\C/C=C\C/C=C\C/C=C\C/C=C\C/C=C\CCC(=O)NCC(C)(C)NC(=O)c1ccccc1O [Compound I-4, N-(1-(4Z,7Z,10Z,13Z,16Z,19Z)-docosa-4,7,10,13,16,19-hexaenamido-2-methylpropan-2-yl)-2-hydroxybenzamide] and CC/C=C\C/C=C\C/C=C\C/C=C\C/C=C\C/C=C\CCC(=O)NCC(C)NC(=O)c1ccccc1O (centres unmarked) [Ih-5, N-(1-(4Z,7Z,10Z,13Z,16Z,19Z)-docosa-4,7,10,13,16,19-hexaenamidopropan-2-yl)-2-hydroxybenzamide] cannot be ordered by IC50: < 200 µM for the first, < 200 µM for the second.

CC/C=C\C/C=C\C/C=C\C/C=C\C/C=C\C/C=C\CCC(=O)O [DHA, docosahexaenoic acid, reference compound] and CC/C=C\C/C=C\C/C=C\C/C=C\C/C=C\C/C=C\CCC(=O)Oc1ccccc1C(=O)O [Ia-1, 2-((4Z,7Z,10Z,13Z,16Z,19Z)-docosa-4,7,10,13,16,19-hexaenoyloxy)benzoic acid] cannot be ordered by IC50: > 200 µM for the first, > 200 µM for the second.

Compared with CC/C=C\C/C=C\C/C=C\C/C=C\C/C=C\C/C=C\CCC(=O)NC(CC(C)C)C(=O)Nc1ccc(O)c(C(=O)O)c1 (centres unmarked) [III-6, 5-(2-(4Z,7Z,10Z,13Z,16Z,19Z)-docosa-4,7,10,13,16,19-hexaenamido-4-methylpentanamido)-2-hydroxybenzoic acid], CC/C=C\C/C=C\C/C=C\C/C=C\C/C=C\C/C=C\CCC(=O)NCC(=O)Nc1ccc(O)c(C(=O)O)c1 [IIIf-1, 5-(2-(4Z,7Z,10Z,13Z,16Z,19Z)-docosa-4,7,10,13,16,19-hexaenamidoacetamido)-2-hydroxybenzoic acid] is higher in IC50: < 200 µM for the first, > 200 µM for the second.

First: CC/C=C\C/C=C\C/C=C\C/C=C\C/C=C\C/C=C\CCC(=O)NC(Cc1ccccc1)C(=O)Nc1ccc(O)c(C(=O)O)c1 (centres unmarked) [IIIf-2, 5-(2-(4Z,7Z,10Z,13Z,16Z,19Z)-docosa-4,7,10,13,16,19-hexaenamido-3-phenylpropanamido)-2-hydroxybenzoic acid]
Second: CC/C=C\C/C=C\C/C=C\C/C=C\C/C=C\C/C=C\CCC(=O)NC(C)CNC(=O)c1ccccc1O (centres unmarked) [Ih-6, N-(2-(4Z,7Z,10Z,13Z,16Z,19Z)-docosa-4,7,10,13,16,19-hexaenamidopropyl)-2-hydroxybenzamide]
The IC50 of the first is higher: > 200 µM for the first, < 200 µM for the second. The second is the more potent here.

CC/C=C\C/C=C\C/C=C\C/C=C\C/C=C\CCCC(=O)Nc1ccc(O)c(C(=O)O)c1 [IIIg-1, 2-hydroxy-5-(5Z,8Z,11Z,14Z,17Z)-icosa-5,8,11,14,17-pentaenamidobenzoic acid] and CC/C=C\C/C=C\C/C=C\C/C=C\C/C=C\CCCC(=O)NCCNC(=O)c1ccccc1O [Ih-14] cannot be ordered by IC50: < 200 µM for the first, < 200 µM for the second.

Compared with CC/C=C\C/C=C\C/C=C\C/C=C\C/C=C\C/C=C\CCC(=O)Oc1ccc(-c2ccc(F)cc2F)cc1C(=O)OCC [IVc-2, ethyl 4-((4Z,7Z,10Z,13Z,16Z,19Z)-docosa-4,7,10,13,16,19-hexaenoyloxy)-2′,4′-difluorobiphenyl-3-carboxylate], CC/C=C\C/C=C\C/C=C\C/C=C\C/C=C\C/C=C\CCC(=O)NC(CC(C)C)C(=O)Oc1ccc(-c2ccc(F)cc2F)cc1C(=O)OCC (centres unmarked) [Ii-4, ethyl 4-(2-(4Z,7Z,10Z,13Z,16Z,19Z)-docosa-4,7,10,13,16,19-hexaenamido-4-methylpentanoyloxy)-2′,4′-difluorobiphenyl-3-carboxylate] is higher in IC50: < 200 µM for the first, > 200 µM for the second.

Compared with CC/C=C\C/C=C\C/C=C\C/C=C\C/C=C\C/C=C\CCC(=O)NCCCOC(=O)c1ccccc1OC(C)=O [Ic-1, 3-(4Z,7Z,10Z,13Z,16Z,19Z)-docosa-4,7,10,13,16,19-hexaenamidopropyl 2-acetoxybenzoate], CC/C=C\C/C=C\C/C=C\C/C=C\C/C=C\C/C=C\CCC(=O)OC(C)OC(=O)c1ccccc1OC(C)=O (centres unmarked) [Ic-12, 1-((4Z,7Z,10Z,13Z,16Z,19Z)-docosa-4,7,10,13,16,19-hexaenoyloxy)ethyl 2-acetoxybenzoate] is lower in IC50: > 200 µM for the first, < 200 µM for the second.

Compared with CC/C=C\C/C=C\C/C=C\C/C=C\C/C=C\C/C=C\CCC(=O)N1CCN(C(=O)c2ccccc2O)CC1 [Ih-2, (4Z,7Z,10Z,13Z,16Z,19Z)-1-(4-(2-hydroxybenzoyl)piperazin-1-yl)docosa-4,7,10,13,16,19-hexaen-1-one], CC/C=C\C/C=C\C/C=C\C/C=C\C/C=C\C/C=C\CCC(=O)NCCN(C)C(=O)c1ccccc1O [Ih-3, N-(2-(4Z,7Z,10Z,13Z,16Z,19Z)-docosa-4,7,10,13,16,19-hexaenamidoethyl)-2-hydroxy-N-methylbenzamide] is lower in IC50: > 200 µM for the first, < 200 µM for the second. The second is the more potent here.

CC/C=C\C/C=C\C/C=C\C/C=C\C/C=C\C/C=C\CCC(=O)N(C)CCNC(=O)c1ccccc1O [Ih-4, 2-hydroxy-N-(2-((4Z,7Z,10Z,13Z,16Z,19Z)—N-methyldocosa-4,7,10,13,16,19-hexaenamido)ethyl)benzamide] and CC/C=C\C/C=C\C/C=C\C/C=C\C/C=C\C/C=C\CCC(=O)NC(C)C(C)NC(=O)c1ccccc1O (centres unmarked) [Ih-7, N-(3-(4Z,7Z,10Z,13Z,16Z,19Z)-docosa-4,7,10,13,16,19-hexaenamidobutan-2-yl)-2-hydroxybenzamide] cannot be ordered by IC50: < 200 µM for the first, < 200 µM for the second.

Going from CC/C=C\C/C=C\C/C=C\C/C=C\C/C=C\C/C=C\CCC(=O)NCCNC(=O)c1ccc(C(F)(F)F)cc1O [Ih-8, N-(2-(4Z,7Z,10Z,13Z,16Z,19Z)-docosa-4,7,10,13,16,19-hexaenamidoethyl)-2-hydroxy-4-(trifluoromethyl)benzamide] to CC/C=C\C/C=C\C/C=C\C/C=C\C/C=C\C/C=C\CCC(=O)NCCNC(=O)c1cc(-c2ccc(F)cc2F)ccc1O [Ih-9, N-(2-(4Z,7Z,10Z,13Z,16Z,19Z)-docosa-4,7,10,13,16,19-hexaenamidoethyl)-2′,4′-difluoro-4-hydroxybiphenyl-3-carboxamide], the IC50 falls from > 200 µM to < 200 µM.

CC/C=C\C/C=C\C/C=C\C/C=C\C/C=C\CCCC(=O)NCCNC(=O)c1cc(-c2ccc(F)cc2F)ccc1O [Ih-10, 2′,4′-difluoro-4-hydroxy-N-(2-(5Z,8Z,11Z,14Z,17Z)-icosa-5,8,11,14,17-pentaenamidoethyl)biphenyl-3-carboxamide] and CC/C=C\C/C=C\C/C=C\C/C=C\C/C=C\C/C=C\CCC(=O)NCCN1C(=O)CC(SC[C@H](NC(=O)c2ccccc2O)C(=O)OC)C1=O (stereo partly drawn) [Ih-11, (R)-methyl 3-(1-(2-(4Z,7Z,10Z,13Z,16Z,19Z)-docosa-4,7,10,13,16,19-hexaenamidoethyl)-2,5-dioxopyrrolidin-3-ylthio)-2-(2-hydroxybenzamido)propanoate] cannot be ordered by IC50: < 200 µM for the first, < 200 µM for the second.
